Where two headings read alike, the source gives them in different places.
What was measured:
Assay in all cases: TGFα-shedding assay-based GPCR screening with chimeric Gα subunit proteins
Format in all cases: cell-based
348 GPCRs [1] = target: T1, 348 GPCRs (Homo sapiens, UniProt P21462); conditions: 10µM, Favipiravir 100μM
T1 sequence (P21462 1-350): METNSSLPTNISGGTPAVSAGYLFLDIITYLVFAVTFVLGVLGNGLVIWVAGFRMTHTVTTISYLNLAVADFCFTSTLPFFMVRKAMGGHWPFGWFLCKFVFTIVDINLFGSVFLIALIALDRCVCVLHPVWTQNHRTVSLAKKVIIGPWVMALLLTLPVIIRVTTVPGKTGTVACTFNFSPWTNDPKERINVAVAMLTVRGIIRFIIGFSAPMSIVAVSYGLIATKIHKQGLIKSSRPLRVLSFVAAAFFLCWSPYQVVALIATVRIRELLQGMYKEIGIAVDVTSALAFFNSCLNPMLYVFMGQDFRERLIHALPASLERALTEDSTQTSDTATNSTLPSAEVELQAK

348 GPCRs [2] = target: T2, 348 GPCRs (Homo sapiens, UniProt P32249); conditions: EBI2 (G protein-coupled receptor 183 (Epstein-Barr Virus Induced Gene 2)); 10µM, Favipiravir 100μM
T2 construct: expressed in transfected cells; host or cells: HEK293A
T2 sequence (P32249 whole entry): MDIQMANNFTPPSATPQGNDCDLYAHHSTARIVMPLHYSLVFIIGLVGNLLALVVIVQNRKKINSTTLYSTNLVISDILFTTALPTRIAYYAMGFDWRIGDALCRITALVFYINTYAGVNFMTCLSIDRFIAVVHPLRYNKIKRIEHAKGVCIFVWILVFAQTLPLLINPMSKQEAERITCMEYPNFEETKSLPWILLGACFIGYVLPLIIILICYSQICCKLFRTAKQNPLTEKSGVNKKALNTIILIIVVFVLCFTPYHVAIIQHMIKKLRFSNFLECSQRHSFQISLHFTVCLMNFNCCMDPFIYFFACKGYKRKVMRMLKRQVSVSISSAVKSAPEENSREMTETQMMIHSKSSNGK

348 GPCRs [3] = target: T3, 348 GPCRs (Homo sapiens, UniProt P49146); conditions: 10µM, Favipiravir 100μM
T3 construct: expressed in transfected cells; host or cells: HEK293A
T3 sequence (P49146 1-381): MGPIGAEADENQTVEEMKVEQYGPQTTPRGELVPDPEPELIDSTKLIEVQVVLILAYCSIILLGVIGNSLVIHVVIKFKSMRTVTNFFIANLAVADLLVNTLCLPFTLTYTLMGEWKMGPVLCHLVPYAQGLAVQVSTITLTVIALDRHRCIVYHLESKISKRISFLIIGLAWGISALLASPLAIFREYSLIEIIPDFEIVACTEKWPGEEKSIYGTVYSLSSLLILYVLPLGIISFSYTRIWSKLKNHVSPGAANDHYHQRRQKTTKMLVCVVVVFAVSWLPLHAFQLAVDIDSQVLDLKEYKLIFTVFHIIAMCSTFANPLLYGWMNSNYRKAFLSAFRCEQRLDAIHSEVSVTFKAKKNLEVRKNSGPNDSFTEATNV

348 GPCRs [4] = target: T4, 348 GPCRs (Homo sapiens, UniProt P50052); conditions: 10µM, Favipiravir 100μM
T4 construct: expressed in transfected cells; host or cells: HEK293A
T4 sequence (P50052 1-363): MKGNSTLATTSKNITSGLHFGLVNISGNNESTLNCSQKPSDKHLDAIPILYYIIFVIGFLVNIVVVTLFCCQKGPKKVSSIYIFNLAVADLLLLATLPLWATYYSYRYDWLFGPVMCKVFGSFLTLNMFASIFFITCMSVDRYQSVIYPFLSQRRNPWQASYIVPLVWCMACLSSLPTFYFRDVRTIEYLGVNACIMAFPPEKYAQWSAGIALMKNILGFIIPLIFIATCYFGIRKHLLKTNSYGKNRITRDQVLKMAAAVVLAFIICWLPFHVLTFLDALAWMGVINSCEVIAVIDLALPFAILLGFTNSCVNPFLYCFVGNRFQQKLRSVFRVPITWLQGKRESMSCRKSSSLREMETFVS

348 GPCRs [5] = target: T5, 348 GPCRs (Homo sapiens, UniProt Q99788); conditions: GPCR CMKLR1 (chemerin chemokine-like receptor 1)
T5 construct: expressed in transfected cells; host or cells: HEK293A
T5 sequence (Q99788 1-373): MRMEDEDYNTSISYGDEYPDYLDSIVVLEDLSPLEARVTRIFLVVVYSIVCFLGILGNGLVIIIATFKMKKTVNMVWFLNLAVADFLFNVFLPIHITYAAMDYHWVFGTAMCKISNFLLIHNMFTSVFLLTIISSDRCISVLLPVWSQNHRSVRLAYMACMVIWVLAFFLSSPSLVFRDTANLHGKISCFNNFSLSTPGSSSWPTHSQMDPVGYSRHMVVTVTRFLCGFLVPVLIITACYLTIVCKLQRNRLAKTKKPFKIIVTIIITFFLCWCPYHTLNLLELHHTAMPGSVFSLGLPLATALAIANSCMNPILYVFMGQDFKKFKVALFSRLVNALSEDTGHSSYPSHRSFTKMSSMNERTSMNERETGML

348 GPCRs [6] = target: T6, 348 GPCRs (Homo sapiens, UniProt Q9H1C0); conditions: 10µM, Favipiravir 100μM
T6 construct: expressed in transfected cells; host or cells: HEK293A
T6 sequence (Q9H1C0 whole entry): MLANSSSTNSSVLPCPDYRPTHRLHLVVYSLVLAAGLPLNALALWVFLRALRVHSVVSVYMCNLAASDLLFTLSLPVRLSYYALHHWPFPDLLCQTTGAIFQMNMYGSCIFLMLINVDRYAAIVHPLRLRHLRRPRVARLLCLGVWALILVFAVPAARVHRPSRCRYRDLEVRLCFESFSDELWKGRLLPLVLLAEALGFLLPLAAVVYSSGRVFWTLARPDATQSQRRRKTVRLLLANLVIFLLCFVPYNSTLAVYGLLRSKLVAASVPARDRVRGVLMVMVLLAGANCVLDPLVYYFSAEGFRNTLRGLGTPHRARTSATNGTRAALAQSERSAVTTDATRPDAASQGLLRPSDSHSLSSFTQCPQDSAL

348 GPCRs [7] = target: T7, 348 GPCRs (Homo sapiens, UniProt Q9NSD7); conditions: RXFP3 (relaxin/insulin-like family peptide receptor 3); 10µM, Favipiravir 100μM
T7 construct: expressed in transfected cells; host or cells: HEK293A
T7 sequence (Q9NSD7 1-469): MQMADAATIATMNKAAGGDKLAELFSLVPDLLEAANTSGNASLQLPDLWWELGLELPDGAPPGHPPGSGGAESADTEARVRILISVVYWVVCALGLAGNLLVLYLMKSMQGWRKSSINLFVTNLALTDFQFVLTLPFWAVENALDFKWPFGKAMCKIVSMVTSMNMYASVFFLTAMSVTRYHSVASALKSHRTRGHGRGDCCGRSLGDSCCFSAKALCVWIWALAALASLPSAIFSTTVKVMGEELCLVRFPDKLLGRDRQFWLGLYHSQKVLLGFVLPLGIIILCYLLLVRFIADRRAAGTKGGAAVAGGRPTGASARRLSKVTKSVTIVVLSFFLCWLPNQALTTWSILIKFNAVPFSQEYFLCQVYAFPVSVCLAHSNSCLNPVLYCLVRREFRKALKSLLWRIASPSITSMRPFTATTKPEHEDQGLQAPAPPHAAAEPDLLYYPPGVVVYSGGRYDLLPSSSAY

348 GPCRs [8] = target: T8, 348 GPCRs (Homo sapiens, UniProt Q9Y5Y3)
T8 construct: expressed in transfected cells; host or cells: HEK293A
T8 sequence (Q9Y5Y3 whole entry): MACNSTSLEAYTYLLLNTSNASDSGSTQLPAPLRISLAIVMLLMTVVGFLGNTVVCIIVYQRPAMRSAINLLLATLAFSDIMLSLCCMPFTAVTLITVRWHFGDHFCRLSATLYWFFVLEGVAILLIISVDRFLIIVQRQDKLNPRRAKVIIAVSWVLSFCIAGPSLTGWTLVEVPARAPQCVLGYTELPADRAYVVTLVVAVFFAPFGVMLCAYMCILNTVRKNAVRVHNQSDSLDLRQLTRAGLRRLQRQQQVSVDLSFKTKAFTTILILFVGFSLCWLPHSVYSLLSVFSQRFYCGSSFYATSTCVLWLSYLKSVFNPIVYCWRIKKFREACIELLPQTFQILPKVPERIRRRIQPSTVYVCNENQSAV

[9] = FPR1 (formyl peptide receptor 1), read-out: % GPCR activation compared to TPA
[10] = NPY2R (neuropeptide Y receptor Y2), read-out: % GPCR activation compared to TPA
[11] = AGTR2 (angiotensin II receptor, type 2), read-out: % GPCR activation compared to TPA
[12] = LPAR5 (lysophosphatidic acid receptor 5), read-out: % GPCR activation compared to TPA
[13] = GPCR GPR45 (G Protein-Coupled Receptor 45), read-out: % GPCR activation compared to TPA
[14] = read-out: % GPCR activation compared to TPA, FPR1 (formyl peptide receptor 1)
[15] = read-out: % GPCR activation compared to TPA, NPY2R (neuropeptide Y receptor Y2)
[16] = read-out: % GPCR activation compared to TPA, AGTR2 (angiotensin II receptor, type 2)
[17] = read-out: % GPCR activation compared to TPA, LPAR5 (lysophosphatidic acid receptor 5)
[18] = read-out: % GPCR activation compared to TPA, GPCR GPR45 (G Protein-Coupled Receptor 45)

| activation at 100 µM (348 GPCRs [1]; [9]) | % GPCR activation compared to TPA (348 GPCRs [2]) | activation at 100 µM (348 GPCRs [3]; [10]) | activation at 10 µM (348 GPCRs [4]; [11]) | activation at 10 µM (348 GPCRs [6]; [12]) | % GPCR activation compared to TPA (348 GPCRs [7]) | activation at 10 µM (348 GPCRs [8]; [13]) | % GPCR activation compared to TPA (348 GPCRs [5]; 100μM) | activation at 100 µM (348 GPCRs [8]; GPCR GPR45 (G Protein-Coupled Receptor 45), 100μM, read-out: % GPCR activation compared to TPA) | Structure (SMILES) | % GPCR activation compared to TPA (348 GPCRs [5]; 10µM) | activation at 100 µM (348 GPCRs [1]; [14]) | activation at 100 µM (348 GPCRs [3]; [15]) | activation at 10 µM (348 GPCRs [4]; [16]) | activation at 10 µM (348 GPCRs [6]; [17]) | activation at 10 µM (348 GPCRs [8]; [18]) |
| --- | --- | --- | --- | --- | --- | --- | --- | --- | --- | --- | --- | --- | --- | --- | --- |
| -4.1% | -1.471% | 0.462% | 0.337% | 2.96% | 1.985% | -0.0256% |  |  | N#C[C@@]1(c2ccc3c(N)ncnn23)O[C@H](CO)[C@@H](O)[C@H]1O [GS441524] | -4.934% |  |  |  |  |  |
| -5.47% | -1.156% | -0.896% | 0.741% | -1.99% | 1.399% |  | 2.983% | -0.546% | NC(=O)c1nc(F)cnc1O [favipiravir, 6-fluoro-3-hydroxy-2-pyrazinecarboxamide] |  |  |  |  |  |  |
| -0.204% | -0.8417% | -4.76% | 0.537% | -2.73% | -2.923% | 0.592% |  |  | CC(C)C(=O)OC[C@H]1O[C@@H](n2ccc(NO)nc2=O)[C@H](O)[C@@H]1O [molnupiravir] | -0.3127% |  |  |  |  |  |

| Structure (SMILES) | activation at 100 µM (348 GPCRs [1]; [9]) | % GPCR activation compared to TPA (348 GPCRs [2]) | activation at 100 µM (348 GPCRs [3]; [10]) | activation at 10 µM (348 GPCRs [4]; [11]) | activation at 10 µM (348 GPCRs [6]; [12]) | % GPCR activation compared to TPA (348 GPCRs [7]) | activation at 10 µM (348 GPCRs [8]; [13]) | % GPCR activation compared to TPA (348 GPCRs [5]; 100μM) | activation at 100 µM (348 GPCRs [8]; GPCR GPR45 (G Protein-Coupled Receptor 45), 100μM, read-out: % GPCR activation compared to TPA) | % GPCR activation compared to TPA (348 GPCRs [5]; 10µM) | activation at 100 µM (348 GPCRs [1]; [14]) | activation at 100 µM (348 GPCRs [3]; [15]) | activation at 10 µM (348 GPCRs [4]; [16]) | activation at 10 µM (348 GPCRs [6]; [17]) | activation at 10 µM (348 GPCRs [8]; [18]) |
| --- | --- | --- | --- | --- | --- | --- | --- | --- | --- | --- | --- | --- | --- | --- | --- |
| CCC(CC)COC(=O)[C@H](C)N[P@](=O)(OC[C@H]1O[C@@](C#N)(c2ccc3c(N)ncnn23)[C@H](O)[C@@H]1O)Oc1ccccc1 [remdesivir] |  | 0.4815% |  |  |  | 3.551% |  |  |  | -1.376% | -4.31% | 1.07% | 0.676% | 2.15% | 0.315% |
| CC(C)OC(=O)[C@H](C)N[P@](=O)(OC[C@H]1O[C@@H](n2ccc(=O)[nH]c2=O)[C@](C)(F)[C@@H]1O)Oc1ccccc1 [sofosbuvir] |  | -0.7581% |  |  |  | -2.192% |  |  |  | -0.9389% | -0.986% | -5.23% | 1.67% | 1.1% | 0.955% |
